Molecular target: T1, recombinant USP1 protein (Homo sapiens, UniProt O94782, DEL125-138/DEL229-408/DEL608-737)
T1 sequence (O94782 with tags, fused parts or gaps DEL125-138/DEL229-408/DEL608-737): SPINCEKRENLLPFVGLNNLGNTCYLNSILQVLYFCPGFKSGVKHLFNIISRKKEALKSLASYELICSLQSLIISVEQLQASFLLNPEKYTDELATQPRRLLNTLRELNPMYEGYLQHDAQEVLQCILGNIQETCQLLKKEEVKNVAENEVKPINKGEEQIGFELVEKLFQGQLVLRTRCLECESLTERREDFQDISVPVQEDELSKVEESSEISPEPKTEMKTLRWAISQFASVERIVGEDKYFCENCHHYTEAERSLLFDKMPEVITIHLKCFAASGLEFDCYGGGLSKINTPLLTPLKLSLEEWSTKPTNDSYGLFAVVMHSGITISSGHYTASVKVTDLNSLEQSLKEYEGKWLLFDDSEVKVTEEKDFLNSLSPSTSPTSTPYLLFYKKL
Assay: Binding affinity to recombinant USP1 protein by differential scanning fluorimetry
Conditions: compound 100 µM; 0.03 mg/mL USP1 (Δ1-66, Δ125-138, Δ229-408, Δ608-737); Tm with compound minus Tm with DMSO; read-out: ΔTm (°C)
Protocol: <Experimental Example 1> Confirmation and evaluation of the binding affinity to recombinant USP1 protein
To evaluate the binding affinity of the compounds of the present invention to the USP1 protein, the following experiment was performed using differential scanning fluorimetry.
Recombinant 0.03 mg/mL USP1 (Δ1-66, Δ125-138, Δ229-408, Δ608-737) protein, dye reagent, and buffer solution (50 mM Tris-HCl pH 8.0, 150 mM NaCl, 2% glycerol, 1 mM DTT) were mixed and 19 µL of the mixture was dispensed into a well plate (MicroAmp Fast 96-Well Reaction plate, 0.1 mL). Each compound was injected at a final concentration of 100 µM in an amount of 1 µL, and the plate containing a total of 20 µL was sealed with MicroAmp Optical Adhesive Film. The melting temperature (Tm) of the protein in each well was measured using a real-time PCR (RT-PCR) device. The difference between the Tm of the sample containing the compound and the Tm containing DMSO is referred to as delta Tm (ΔTm), where a larger ΔTm value indicates stronger binding affinity. The degree of temperature at which the protein is modified in the presence of the compound compared to DMSO was calculated according to Equation 1 below: [formula]

Structure (SMILES)	ΔTm at 100 µM [°C]
COc1ncnc(C2CC2)c1-c1ncc2cc(C(=O)NCCS(C)(=O)=O)n(Cc3ccc(-c4nc(C(F)(F)F)cn4C(C)C)cc3)c2n1 [Example 8, 2-(4-cyclopropyl-6-methoxypyrimidin-5-yl)-7-(4-(1-isopropyl-4-(trifluoromethyl)-1H-imidazol-2-yl)benzyl)-N-(2-(methylsulfonyl)ethyl)-7H-pyrrolo[2,3-d]pyrimidine-6-carboxamide]	> 5
COc1ncnc(C2CC2)c1-c1ncc2cc(C(=O)N3CC4CCC(C3)N4)n(Cc3ccc(-c4nc(C(F)(F)F)cn4C(C)C)cc3)c2n1 [Example 16, (3,8-diazabicyclo[3 .2.1]octan-3-yl)(2-(4-cyclopropyl-6-methoxypyrimidin-5-yl)-7-(4-(1-isopropyl-4-(trifluoromethyl)-1H-imidazol-2-yl)benzyl)-7H-pyrrolo[2,3-d]pyrimidin-6-yl)methanone]	> 5
COc1ncnc(C2CC2)c1-c1ncc2cc(C(=O)N3CCS(=O)(=O)CC3)n(Cc3ccc(-c4nc(C(F)(F)F)cn4C(C)C)cc3)c2n1 [Example 27, (2-(4-cyclopropyl-6-methoxypyrimid in-5-yl)-7-(4-(1-isopropyl-4-(trifluoromethyl)-1H-imidazol-2-yl)benzyl)-7H-pyrrolo[2,3-d]pyrimidin-6-yl) (1,1-dioxidothiomor pholino)methanone]	> 5
CNC(=O)c1cc2cnc(-c3c(OC)ncnc3C3CC3)nc2n1Cc1ccc(-n2ccnn2)cc1 [Example 44, 7-(4-(1H-1,2,3-triazol-1-yl)benzyl)-2-(4-cyclopropyl-6-methoxypyrimidin-5-yl)-N-methyl-7H-pyrrolo[2,3-d]pyrimidine-6-carboxamide]	< 5
COc1ncnc(C2CC2)c1-c1ncc2cc(C(=O)N3C[C@H]4CC[C@@H](C3)N4C3CC3)n(Cc3ccc(-c4nc(C(F)(F)F)cn4C(C)C)cc3)c2n1 [Example 46, (2-(4-cyclopropyl-6-methoxypyrimid in-5-yl)-7-(4-(1-isopropyl-4-(trifluoromethyl)-1H-imidazol-2-yl)benzyl)-7H-pyrrolo[2,3-d]pyrimidin-6-yl)((1R,5S)-8-cyclopropyl-3,8-diazabicyclo[3 .2.1]octan-3-yl)methanone]	> 5
COc1ncnc(C2CC2)c1-c1ncc2cc(C(=O)N3CCNCC3)n(Cc3ccc(-c4nc(C(F)(F)F)cn4C(C)C)cc3)c2n1 [Example 54, (2-(4-cyclopropyl-6-methoxypyrimid in-5-yl)-7-(4-(1-isopropyl-4-(trifluoromethyl)-1H-imidazol-2-yl)benzyl)-7H-pyrrolo[2,3-d]pyrimidin-6-yl) (piperazin-1-yl)methanone]	> 5
CNC(=O)c1cc2cnc(-c3c(C4CC4)nc[nH]c3=O)nc2n1Cc1ccc(-c2nc(C(F)(F)F)cn2C(C)C)cc1 [Example 59, 2-(4-cyclopropyl-6-oxo-1,6-dihydropyrimidin-5-yl)-7-(4-(1-isopropyl-4-(trifluoromethyl)-1H-imidazol-2-yl)benzyl)-N-methyl-7H-pyrrolo[2,3-d]pyrimidine-6-carboxamide]	< 5
CCn1cnc(C2CC2)c(-c2ncc3cc(C(=O)NC)n(Cc4ccc(-c5nc(C(F)(F)F)cn5C(C)C)cc4)c3n2)c1=O [Example 62, 2-(4-cyclopropyl-1-ethyl-6-oxo-1,6-dihydropyrimidin-5-yl)-7-(4-(1-isopropyl-4-(trifluoromethyl)-1H-imidazol-2-yl)benzyl)-N-methyl-7H-pyrrolo[2,3-d]pyrimidine-6-carboxamide]	< 5
COc1ncnc(C2CC2)c1-c1ncc2cc(C(=O)N3CC(F)(C#N)C3)n(Cc3ccc(-c4nc(C(F)(F)F)cn4C(C)C)cc3)c2n1 [Example 72, 1-(2-(4-cyclopropyl-6-methoxypyrimidin-5-yl)-7-(4-(1-isopropyl-4-(trifluoromethyl)-1H-imidazol-2-yl)benzyl)-7H-pyrrolo[2,3-d]pyrimidine-6-carbonyl)-3-fluoroazetidine-3-carbonitrile]	> 5
COc1ncnc(C2CC2)c1-c1ncc2cc(C(=O)NC3CCN(S(C)(=O)=O)CC3)n(Cc3ccc(-c4nc(C(F)(F)F)cn4C(C)C)cc3)c2n1 [Example 74, 2-(4-cyclopropyl-6-methoxypyrimidin-5-yl)-7-(4-(1-isopropyl-4-(trifluoromethyl)-1H-imidazol-2-yl)benzyl)-N-(1-(methylsulfonyl)piperidin-4-yl)-7H-pyrrolo[2,3-d]pyrimidine-6-carboxamide]	> 5
COc1ncnc(C2CC2)c1-c1ncc2cc(C(=O)N(C)C3CC3)n(Cc3ccc(-c4nc(C(F)(F)F)cn4C(C)C)cc3)c2n1 [Example 76, N-cyclopropyl-2-(4-cyclopropyl-6-methoxypyrimidin-5-yl)-7-(4-(1-isopropyl-4-(trifluoromethyl)-1H-imidazol-2-yl)benzyl)-N-methyl-7H-pyrrolo[2,3-d]pyrimidine-6-carboxamide]	> 5
COc1ncnc(C2CC2)c1-c1ncc2cc(C(=O)Nc3ccc(CN(C)C)cc3)n(Cc3ccc(-c4nc(C(F)(F)F)cn4C(C)C)cc3)c2n1 [Example 77, 2-(4-cyclopropyl-6-methoxypyrimidin-5-yl)-N-(4-((dimethylamino)methyl)phenyl)-7-(4-(1-isopropyl-4-(trifluoromethyl)-1H-imidazol-2-yl)benzyl)-7H-pyrrolo[2,3-d]pyrimidine-6-carboxamide]	> 5
COc1ncnc(C2CC2)c1-c1ncc2cc(C(=O)N[C@H](C)CO)n(Cc3ccc(-c4nc(C(F)(F)F)cn4C(C)C)cc3)c2n1 [Example 81, (R) -2-(4-cyclopropyl-6-methoxypyrimidin-5-yl)-N-(1-hydroxypropan-2-yl)-7-(4-(1-isopropyl-4-(trifluoromethyl)-1H-imidazol-2-yl)benzyl)-7H-pyrrolo[2,3-d]pyrimidine-6-carboxamide]	> 5
COc1ncnc(C2CC2)c1-c1ncc2cc(C(=O)N[C@@H](C)CCO)n(Cc3ccc(-c4nc(C(F)(F)F)cn4C(C)C)cc3)c2n1 [Example 91, (S)-2-(4-cyclopropyl-6-methoxypyrimidin-5-yl)-N-(4-hydroxybutan-2-yl)-7-(4-(1-isopropyl-4-(trifluoromethyl)-1H-imidazol-2-yl)benzyl)-7H-pyrrolo[2,3-d]pyrimidine-6-carboxamide]	> 5
COc1ncnc(C2CC2)c1-c1ncc2cc(C(=O)NC3CCS(=O)(=O)CC3)n(Cc3ccc(-c4nc(C(F)(F)F)cn4C(C)C)cc3)c2n1 [Example 93, 2-(4-cyclopropyl-6-methoxypyrimidin-5-yl)-N-(1,1-dioxidotetrahydro-2H-thiopyran-4-yl)-7-(4-(1-isopropyl-4-(trifluoromethyl)-1H-imidazol-2-yl)benzyl)-7H-pyrrolo[2,3-d]pyrimidine-6-carboxamide]	> 5
COc1ncnc(C2CC2)c1-c1ncc2cc(C(=O)N3CC(C(F)F)C3)n(Cc3ccc(-c4nc(C(F)(F)F)cn4C(C)C)cc3)c2n1 [Example 96, (2-(4-cyclopropyl-6-methoxypyrimid in-5-yl)-7-(4-(1-isopropyl-4-(trifluoromethyl)-1H-imidazol-2-yl)benzyl)-7H-pyrrolo[2,3-d]pyrimidin-6-yl) (3-(difluoromethyl)azetidin-1-yl)methanone]	> 5
COc1ncnc(C2CC2)c1-c1ncc2cc(C(=O)NCCN3CCNCC3)n(Cc3ccc(-c4nc(C(F)(F)F)cn4C(C)C)cc3)c2n1 [Example 98, 2-(4-cyclopropyl-6-methoxypyrimidin-5-yl)-7-(4-(1-isopropyl-4-(trifluoromethyl)-1H-imidazol-2-yl)benzyl) -N-(2-(piperazin-1-yl)ethyl)-7H-pyrrolo[2,3-d]pyrimidine-6-carboxamide]	> 5
COc1ncnc(C2CC2)c1-c1ncc2cc(C(=O)N(C)C3CNC3)n(Cc3ccc(-c4nc(C(F)(F)F)cn4C(C)C)cc3)c2n1 [Example 103, N-(azetidin-3-yl)-2-(4-cyclopropyl-6-methoxypyrimidin-5-yl)-7-(4-(1-isopropyl-4-(trifluoromethyl) -1H-imidazol-2-yl)benzyl)-N-methyl-7H-pyrrolo[2,3-d]pyrimidine-6-carboxamide]	> 5
COc1ncnc(C2CC2)c1-c1ncc2cc(C(=O)N3CCCC3(C)C)n(Cc3ccc(-c4nc(C(F)(F)F)cn4C(C)C)cc3)c2n1 [Example 107, (2-(4-cyclopropyl-6-methoxypyrimid in-5-yl)-7-(4-(1-isopropyl-4-(trifluoromethyl)-1H-imidazol-2-yl)benzyl)-7H-pyrrolo[2,3-d]pyrimidin-6-yl)(2,2-dimethylpyrrolidin-1-yl)methanone]	> 5

Reference: patent EP4806898A1, “HETEROARYL DERIVATIVE COMPOUND AND USE THEREOF” (Voronoi Inc., priority 2023, dated 2025)
